The text below walks through data of ChEMBL document CHEMBL1201862, “PubChem BioAssay data set” (2004).

Some test systems named below: A549; ACHN; COLO 205; HCT-15; Hs-578T; KM12; MDA-MB-231; MDA-MB-435; MDA-N; NCI-H522; PC-3; RPMI-8226; SF-268; SK-MEL-2; SK-MEL-5; SK-OV-3; SNB-75; SW-620; T47D; UACC-257.
What all share (assay): NCI-60 cell line screen, 48 h

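Five concentrations, 48 hours, 96-well plates. GI50 = concentration required for 50% inhibition of growth.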 Active and inactive are the calls of the source. No stated cut-off is given here; in the data, active = GI50 up to about 1.1 µM and inactive = higher.

In the case of `CCOCC(=O)N[C@H]1CCc2cc(OC)c(OC)c(OC)c2-c2ccc(OC)c(=O)cc21`, the GI50 is 0.0211 µM (active) in the experiment with A549; 0.0962 µM (active) with ACHN; 0.0137 µM (active) in the experiment on COLO 205; 0.0865 µM with HCT-15; 0.0203 µM (active) in the experiment with Hs-578T; 0.0129 µM (active) with KM12. The GI50 with MDA-MB-231 is < 0.0145 µM (active); in the experiment on MDA-MB-435 it was 0.0123 µM (active); with MDA-N, 0.0122 µM (active); in the experiment with NCI-H522, 0.0143 µM (active); in the experiment on PC-3, < 0.0154 µM (active); in the experiment on RPMI-8226, 0.0778 µM (active). In addition, the GI50 in the experiment with SF-268 is 0.0233 µM (active); in the experiment on SK-MEL-2 it was 0.0174 µM (active); with SK-MEL-5, 0.0133 µM (active); in the experiment with SK-OV-3 it was 0.111 µM (active); in the experiment on SNB-75, < 0.0191 µM (active); with SW-620, 0.0169 µM (active). Besides, the GI50 was > 100 µM (inactive) in the experiment on T47D and 0.0377 µM (active) in the experiment on UACC-257.

`CC1CC2CCCC(=O)C2=C(O)O1` (stereo not given): the GI50 in the experiment on A549 was > 100 µM (inactive); in the experiment with ACHN it was > 100 µM (inactive); in the experiment with COLO 205, > 100 µM (inactive); with HCT-15 it was over 100 µM; in the experiment on Hs-578T, > 100 µM (inactive); in the experiment with KM12, > 100 µM (inactive). In addition, the GI50 in the experiment with MDA-MB-231, with MDA-MB-435, with MDA-N, in the experiment on NCI-H522, in the experiment on PC-3 and with RPMI-8226 was > 100 µM (inactive) each time. Besides, the GI50 with SF-268, in the experiment on SK-MEL-2, in the experiment on SK-MEL-5, in the experiment with SK-OV-3, in the experiment with SNB-75 and in the experiment with SW-620 was > 100 µM (inactive) throughout. The GI50 in the experiment on T47D and in the experiment on UACC-257 was > 100 µM (inactive) in each case.

Turning to `CC(C)CC(=O)OC[n+]1ccc(-c2c(COC(=O)NC(C)C)c(COC(=O)NC(C)C)c3n2CCC3)cc1`, the GI50 in the experiment with A549 was > 100 µM (inactive); with ACHN, 38.3 µM (inactive); with COLO 205, > 100 µM (inactive); in the experiment on HCT-15, over 100 µM; in the experiment on Hs-578T, > 100 µM (inactive); with KM12, > 100 µM (inactive). For the same compound, the GI50 in the experiment with MDA-MB-231, with MDA-MB-435, in the experiment on MDA-N, in the experiment with NCI-H522, in the experiment with PC-3 and in the experiment on RPMI-8226 was > 100 µM (inactive) throughout. In addition, the GI50 with SF-268, with SK-MEL-2, in the experiment on SK-MEL-5, in the experiment with SK-OV-3, with SNB-75 and in the experiment on SW-620 was > 100 µM (inactive) throughout. Further, the GI50 with T47D and with UACC-257 was > 100 µM (inactive) in each case.
